A word on the IC50: it is the concentration needed to halve the response being measured.

Results on 14 molecules are retold here after ChEMBL document CHEMBL6074636, “Design and activity evaluation of new EGFR tyrosine kinase inhibitors containing cyclic polyamines” (Bioorg Med Chem Lett, 2024).

One data set relates to NCI-H1975. Kind of data set: cells. Format: functional, cell-based. Particulars: Homo sapiens, NCI-H1975, 48 h.
Data set [1] concerns the target Epidermal growth factor receptor (Homo sapiens, UniProt P00533, EX19DEL). Kind of data set: Inhibition of EGFR del19 mutant (unknown origin).
The target of data set [2] is Epidermal growth factor receptor (Homo sapiens, UniProt P00533, C797S/L858R/T790M). Put plainly: Inhibition of EGFR L858R/T790M/C797S triple mutant (unknown origin).
Data set [3] concerns PC-9. Kind of data set: cells. Format: functional, cell-based. Particulars: Homo sapiens, PC-9, 48 h.
Description: Antiproliferative activity against human PC-9 cells expressing EGFR del19/T790M/C797S triple mutant assessed as inhibition of cell growth incubated for 48 hrs by CCK assay
A further data set deals with A549. Kind of data set: cells. Particulars: Homo sapiens, A549, 48 h. The format is functional, cell-based.
For data set [4], the system named is PC-9. Put plainly: cells. Particulars: Homo sapiens, PC-9, 48 h. Format: functional, cell-based. The source holds these as a separate data set.
Description: Antiproliferative activity against human PC-9 cells assessed as inhibition of cell growth incubated for 48 hrs by CCK assay
The test system of data set [5] is PC-9. Put plainly: Antiproliferative activity against human PC-9 cells expressing EGFR del19/T790M/C797S triple mutant assessed as reduction in cell proliferation at 100 to 500 nM incubated for 48 hrs Edu staining based analysis. Particulars: dose 100-500 nM. The format is functional.
For data set [6], the system named is PC-9. Kind of data set: Inhibition of cell migration in human PC-9 cells expressing EGFR del19/T790M/C797S triple mutant at 1 uM incubated for 48 hrs by transwell assay. Format: functional, cell-based.
Data set [7] can be described thus: Selectivity index, ratio of IC50 for cytotoxicity against human BEAS-2B cells assessed as inhibition of cell growth to IC50 for antiproliferative activity against human PC-9 cells expressing EGFR del19/T790M/C797S triple mutant assessed as inhibition of cell growth. The format is toxicity, cell-based. Particulars: read-out: Ratio IC50.
The subject of data set [8] is PC-9. Kind of data set: Inhibition of colony formation in human PC-9 cells expressing EGFR del19/T790M/C797S triple mutant at 100 nM. The format is functional, cell-based.
Data set [9] in a line: Cytotoxicity against human BEAS-2B cells assessed as inhibition of cell growth incubated for 48 hrs by CCK-8 assay. Format: toxicity, cell-based. In general terms: Tetrazolium assays rely on reduction of a dye to a coloured formazan, in cell work by metabolically active cells.
Data set [10] concerns PC-9. Kind of data set: Inhibition of colony formation in human PC-9 cells expressing EGFR del19/T790M/C797S triple mutant at 1 uM. Format: functional, cell-based.

Active and inactive are the calls of the source. The rule behind the calls is not given here. A value given as a limit tells only on which side of the number the result lay.

Chain of Epidermal growth factor receptor (Homo sapiens, UniProt P00533, EX19DEL) (P00533 whole entry, looked up, stated change not applied): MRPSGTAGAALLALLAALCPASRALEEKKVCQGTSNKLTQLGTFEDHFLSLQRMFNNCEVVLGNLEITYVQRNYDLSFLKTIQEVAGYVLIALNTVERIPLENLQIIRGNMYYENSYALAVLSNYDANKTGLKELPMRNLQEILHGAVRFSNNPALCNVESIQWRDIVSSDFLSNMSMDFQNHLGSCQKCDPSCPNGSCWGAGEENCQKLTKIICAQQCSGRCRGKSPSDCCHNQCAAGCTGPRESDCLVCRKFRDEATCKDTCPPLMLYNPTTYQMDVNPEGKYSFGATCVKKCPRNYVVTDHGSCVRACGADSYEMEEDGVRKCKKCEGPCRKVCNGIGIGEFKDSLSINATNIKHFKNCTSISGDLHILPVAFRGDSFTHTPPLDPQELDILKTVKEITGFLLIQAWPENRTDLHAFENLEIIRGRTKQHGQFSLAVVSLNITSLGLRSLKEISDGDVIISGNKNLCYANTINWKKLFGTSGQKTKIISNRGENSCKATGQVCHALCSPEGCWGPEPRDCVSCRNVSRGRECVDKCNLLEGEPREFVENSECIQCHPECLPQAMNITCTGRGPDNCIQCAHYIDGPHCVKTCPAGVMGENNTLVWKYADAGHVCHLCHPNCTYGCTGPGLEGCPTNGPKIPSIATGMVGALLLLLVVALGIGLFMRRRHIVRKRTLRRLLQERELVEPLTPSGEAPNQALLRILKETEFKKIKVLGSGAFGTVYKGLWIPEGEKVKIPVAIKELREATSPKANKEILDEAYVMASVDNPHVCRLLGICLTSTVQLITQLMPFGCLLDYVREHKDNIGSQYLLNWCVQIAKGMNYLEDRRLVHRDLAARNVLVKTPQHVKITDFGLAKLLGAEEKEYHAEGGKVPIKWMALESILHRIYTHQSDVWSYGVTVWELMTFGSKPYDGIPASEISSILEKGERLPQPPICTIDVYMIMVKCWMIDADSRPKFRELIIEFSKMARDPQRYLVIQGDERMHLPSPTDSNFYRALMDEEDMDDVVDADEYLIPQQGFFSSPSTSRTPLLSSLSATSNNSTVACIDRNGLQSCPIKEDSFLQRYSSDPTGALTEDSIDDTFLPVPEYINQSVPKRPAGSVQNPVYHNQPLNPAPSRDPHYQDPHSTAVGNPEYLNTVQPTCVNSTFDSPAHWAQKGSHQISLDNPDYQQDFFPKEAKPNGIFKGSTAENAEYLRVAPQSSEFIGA
Chain of Epidermal growth factor receptor (Homo sapiens, UniProt P00533, C797S/L858R/T790M) (P00533 25-1210 T790M/C797S/L858R limits assumed): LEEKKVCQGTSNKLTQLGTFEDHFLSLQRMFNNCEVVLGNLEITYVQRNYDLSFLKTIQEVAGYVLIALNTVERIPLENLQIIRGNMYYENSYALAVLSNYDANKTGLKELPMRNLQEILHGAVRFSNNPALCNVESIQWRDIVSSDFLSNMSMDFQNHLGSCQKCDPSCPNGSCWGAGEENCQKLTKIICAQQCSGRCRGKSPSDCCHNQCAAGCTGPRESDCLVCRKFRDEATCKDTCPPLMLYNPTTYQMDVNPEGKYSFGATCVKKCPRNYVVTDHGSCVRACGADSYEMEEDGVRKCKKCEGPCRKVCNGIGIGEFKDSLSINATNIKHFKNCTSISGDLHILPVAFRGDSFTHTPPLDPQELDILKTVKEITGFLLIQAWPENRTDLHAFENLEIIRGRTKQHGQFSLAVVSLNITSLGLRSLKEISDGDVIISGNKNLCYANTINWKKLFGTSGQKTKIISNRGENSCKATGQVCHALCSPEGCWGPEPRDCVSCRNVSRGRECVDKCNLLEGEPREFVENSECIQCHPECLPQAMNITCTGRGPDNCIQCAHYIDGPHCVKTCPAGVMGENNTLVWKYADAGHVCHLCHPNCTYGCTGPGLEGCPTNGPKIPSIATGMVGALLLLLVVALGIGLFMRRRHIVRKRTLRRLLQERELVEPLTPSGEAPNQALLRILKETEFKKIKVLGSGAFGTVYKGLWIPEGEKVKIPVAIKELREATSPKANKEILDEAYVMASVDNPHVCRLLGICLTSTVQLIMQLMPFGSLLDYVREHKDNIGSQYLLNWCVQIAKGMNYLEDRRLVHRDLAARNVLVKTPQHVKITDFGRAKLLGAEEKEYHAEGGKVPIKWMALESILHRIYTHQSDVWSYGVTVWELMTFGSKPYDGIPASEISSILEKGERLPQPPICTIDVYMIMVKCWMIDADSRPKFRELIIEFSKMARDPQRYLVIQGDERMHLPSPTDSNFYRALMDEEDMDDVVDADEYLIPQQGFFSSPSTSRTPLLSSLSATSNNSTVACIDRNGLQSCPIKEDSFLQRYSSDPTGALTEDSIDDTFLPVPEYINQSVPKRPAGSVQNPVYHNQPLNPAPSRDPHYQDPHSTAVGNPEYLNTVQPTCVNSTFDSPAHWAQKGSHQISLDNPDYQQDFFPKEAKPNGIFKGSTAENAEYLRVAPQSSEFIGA
Description for A549: Antiproliferative activity against human A549 cells expressing wild type EGFR assessed as inhibition of cell growth incubated for 48 hrs by CCK assay
Description for NCI-H1975: Antiproliferative activity against human NCI-H1975 cells assessed as inhibition of cell growth incubated for 48 hrs by CCK assay

As for `O=C(O)CN1CCN(CC(=O)O)CC(=O)Nc2cc3c(Nc4ccc(OCc5cccc(F)c5)c(Cl)c4)ncnc3cc2NC(=O)C1`, the IC50 with NCI-H1975 is 2.49 µM; in [1], 0.18 µM; in [2], 0.22 µM; in the data set on PC-9 [3] it was 1.09 µM; with A549, 4.02 µM; in the data set on PC-9 [4] it was 6.57 µM.
`O=C(O)CN1CCN(CC(=O)O)CC(=O)Nc2cc3c(Nc4cccc(F)c4)ncnc3cc2NC(=O)C1`: in the data set with PC-9 [5], the result was Active. In addition, the IC50 stood at 1.41 µM with NCI-H1975; 0.136 µM in data set [1]; 0.161 µM in [2]; 0.496 µM in the data set on PC-9 [3]; 0.946 µM with A549; 1.13 µM in the data set with PC-9 [4]. Also, the inhibition entry in the data set with PC-9 [6], with PC-9 [8] and with PC-9 [10] was “Active” throughout. Further, in [7], the selectivity ratio is 34.7. The IC50 at 48 h in [9] was 17.2 µM.
Take `C#Cc1cccc(Nc2ncnc3cc4c(cc23)OCCOCCOCCO4)c1` [ICOTINIB]: the IC50 was 5.75 µM in the data set with NCI-H1975, 1.26 µM in the data set with PC-9 [3], 56 µM in the data set on A549 and 1.53 µM in the data set on PC-9 [4].
As to `CCc1cccc(Nc2ncnc3cc4c(cc23)NC(=O)CN(CC(=O)O)CCN(CC(=O)O)CC(=O)N4)c1`, the IC50 was 8.11 µM in the data set on NCI-H1975; 0.378 µM in [1]; 0.321 µM in data set [2]; 1.52 µM with PC-9 [3]; greater than 100 µM with A549; 10.2 µM in the data set on PC-9 [4].
In the case of `O=C(O)CN1CCN(CC(=O)O)CC(=O)Nc2cc3c(Nc4ccccc4)ncnc3cc2NC(=O)C1`, the IC50 with NCI-H1975 came to 3.91 µM; in the data set on PC-9 [3], 14.2 µM; in the data set with A549, 3.91 µM; with PC-9 [4], 32.9 µM.
Take `O=C(O)CN1CCN(CC(=O)O)CC(=O)Nc2cc3c(Nc4ccc(F)c(Cl)c4)ncnc3cc2NC(=O)C1`: the IC50 is 18.9 µM in the data set with NCI-H1975, 13.2 µM in the data set with PC-9 [3], greater than 100 µM in the data set on A549 and 7.87 µM in the data set on PC-9 [4].
Regarding `C=CC(=O)Nc1cc(Nc2nccc(-c3cn(C)c4ccccc34)n2)c(OC)cc1N(C)CCN(C)C` [OSIMERTINIB], the IC50 with NCI-H1975 came to […]; in the data set with PC-9 [3], 0.912 µM; in the data set on A549 it was 0.637 µM; in the data set with PC-9 [4] it was 0.08 µM. In addition, in data set [9], the IC50 at 48 h was determined as 20.1 µM.
Turning to `O=C1CNCCNCC(=O)Nc2cc3c(Nc4ccc(F)c(Cl)c4)ncnc3cc2N1`, the IC50 in the data set on NCI-H1975 was 4.43 µM; in data set [1] it was greater than 1000 µM; in data set [2] it was greater than 1000 µM; in the data set with PC-9 [3], 4.61 µM; with A549, 1.38 µM; in the data set with PC-9 [4] it was 12.5 µM.
Turning to `O=C(O)CN1CCN(CC(=O)O)CC(=O)Nc2cc3c(Nc4cccc(Br)c4)ncnc3cc2NC(=O)C1`, the IC50 in the data set with NCI-H1975 is 4.41 µM; in the data set on PC-9 [3] it was 3.6 µM; in the data set on A549, greater than 100 µM; with PC-9 [4], 31.6 µM.
The corresponding values for `O=C(O)CN1CCN(CC(=O)O)CC(=O)Nc2cc3c(Nc4ccc(Cl)cc4Cl)ncnc3cc2NC(=O)C1` are 4.54 µM, 11 µM, greater than 100 µM and 1.66 µM.
The corresponding values for `O=C(O)CN1CCN(CC(=O)O)CC(=O)Nc2cc3c(Nc4cccc(Cl)c4)ncnc3cc2NC(=O)C1` are 23.3 µM, 84 µM, 2.26 µM and 30.7 µM.
With `CCc1cc(Br)ccc1Nc1ncnc2cc3c(cc12)NC(=O)CN(CC(=O)O)CCN(CC(=O)O)CC(=O)N3`, the IC50 is 4.85 µM in the data set on NCI-H1975, 3.43 µM in the data set on PC-9 [3], 3.32 µM in the data set on A549 and 49.3 µM in the data set with PC-9 [4].
`O=C(O)CN1CCN(CC(=O)O)CC(=O)Nc2cc3c(Nc4ccc(Br)cc4F)ncnc3cc2NC(=O)C1`: the IC50 amounted to 3.44 µM in the data set with NCI-H1975; 0.161 µM in [1]; 0.251 µM in data set [2]; 0.767 µM with PC-9 [3]; 7.78 µM in the data set with A549; 2.7 µM in the data set on PC-9 [4].
Turning to `COc1cccc(Nc2ncnc3cc4c(cc23)NC(=O)CN(CC(=O)O)CCN(CC(=O)O)CC(=O)N4)c1`, the IC50 with NCI-H1975 is 3.04 µM; in the data set with PC-9 [3] it was 6.7 µM; in the data set with A549 it was 35.1 µM; with PC-9 [4], 12.3 µM.
